Test results: PubChem BioAssay AID1963870 (Molecular Pharmacology Branch, DTP, NCI, 2024)

Tested on: 292921-168-R-J2-PDC KRAS tumor spheroid viability
Assay: Anticancer human tumor 292921-168-R-J2-PDC patient-derived pancreatic carcinoma cell line growth inhibition [KRAS2]
Conditions: spheroids with HUVEC and MSC; for IC50: curve of first compound; for viability, T/C: stronger effect = lower value
Outline: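 KRAS-mutant tumor cells were grown as spheroids with HUVEC endothelial cells and human MSCs as stroma. Targeted agents were tested alone and with KRAS pathway inhibitors. Doses started at or near clinical Cmax, or 10 microM, descending half-log.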

[1] = second compound 0.1 µM, first compound 0.01 µM
[2] = second compound 0.1 µM, first compound 0.0316 µM
[3] = second compound 0.1 µM, first compound 0.1 µM
[4] = second compound 0.1 µM, first compound 0.316 µM
[5] = second compound 0.1 µM, first compound 1 µM
[6] = second compound 0.1 µM, first compound 3.16 µM
[7] = second compound 0.316 µM, first compound 0.01 µM
[8] = second compound 0.316 µM, first compound 0.0316 µM
[9] = second compound 0.316 µM, first compound 0.1 µM
[10] = second compound 0.316 µM, first compound 0.316 µM
[11] = second compound 0.316 µM, first compound 1 µM
[12] = second compound 0.316 µM, first compound 3.16 µM
[13] = second compound 1 µM, first compound 0.01 µM
[14] = second compound 1 µM, first compound 0.0316 µM
[15] = second compound 1 µM, first compound 0.1 µM
[16] = second compound 1 µM, first compound 0.316 µM
[17] = second compound 1 µM, first compound 1 µM
[18] = second compound 1 µM, first compound 3.16 µM
[19] = second compound 3.16 µM, first compound 0.01 µM
[20] = second compound 3.16 µM, first compound 0.0316 µM
[21] = second compound 3.16 µM, first compound 0.1 µM
[22] = second compound 3.16 µM, first compound 0.316 µM
[23] = second compound 3.16 µM, first compound 1 µM
[24] = second compound 3.16 µM, first compound 3.16 µM
[25] = second compound 10 µM, first compound 0.01 µM
[26] = second compound 10 µM, first compound 0.0316 µM
[27] = second compound 10 µM, first compound 0.1 µM
[28] = second compound 10 µM, first compound 0.316 µM
[29] = second compound 10 µM, first compound 1 µM
[30] = second compound 10 µM, first compound 3.16 µM
[31] = second compound 0.1 µM, first compound 10 µM
[32] = second compound 0.316 µM, first compound 10 µM
[33] = second compound 1 µM, first compound 10 µM
[34] = second compound 3.16 µM, first compound 10 µM
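Note: drug exposure lasted seven days after spheroids formed for three days.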
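Throughout, for viability, T/C: percent of DMSO vehicle control viability which is 100%.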

CC1COCCN1c1cc(-c2ccnn2C)c2ccnc(-c3ccn[nH]3)c2n1 (stereo not given) + CC1OCC2(CCN(c3cnc(Sc4ccnc(N)c4Cl)c(N)n3)CC2)C1N
IC50 (second compound 0.1 µM): < 0.01 µM
IC50 (second compound 0.316 µM): < 0.01 µM
IC50 (second compound 1 µM): < 0.01 µM
IC50 (second compound 3.16 µM): < 0.01 µM
IC50 (second compound 10 µM): < 0.01 µM
viability, T/C [1]: 44.6%
viability, T/C [2]: 23.8%
viability, T/C [3]: 15.9%
viability, T/C [4]: 15%
viability, T/C [5]: 15%
viability, T/C [6]: 16.2%
viability, T/C [7]: 38.9%
viability, T/C [8]: 20.6%
viability, T/C [9]: 14.6%
viability, T/C [10]: 13%
viability, T/C [11]: 13.3%
viability, T/C [12]: 14.5%
viability, T/C [13]: 33.5%
viability, T/C [14]: 21.9%
viability, T/C [15]: 13.4%
viability, T/C [16]: 12.3%
viability, T/C [17]: 12.3%
viability, T/C [18]: 12.3%
viability, T/C [19]: 28.2%
viability, T/C [20]: 17.8%
viability, T/C [21]: 13.4%
viability, T/C [22]: 11%
viability, T/C [23]: 10.2%
viability, T/C [24]: 10.9%
viability, T/C [25]: 25.3%
viability, T/C [26]: 18.2%
viability, T/C [27]: 13.1%
viability, T/C [28]: 10.2%
viability, T/C [29]: 10.7%
viability, T/C [30]: 9.89%

CN(C)C/C=C/C(=O)Nc1cc2c(Nc3ccc(F)c(Cl)c3)ncnc2cc1O[C@H]1CCOC1 + C=CC(=O)N1CCN(c2nc(=O)n(-c3c(C)ccnc3C(C)C)c3nc(-c4c(O)cccc4F)c(F)cc23)C(C)C1
IC50 (second compound 0.1 µM): > 0.1 µM
IC50 (second compound 0.316 µM): > 0.1 µM
IC50 (second compound 1 µM): > 0.1 µM
IC50 (second compound 3.16 µM): > 0.1 µM
IC50 (second compound 10 µM): < 0.000316 µM
viability, T/C (second compound 0.1 µM, first compound 0.000316 µM): 119%
viability, T/C (second compound 0.1 µM, first compound 0.001 µM): 110%
viability, T/C (second compound 0.1 µM, first compound 0.00316 µM): 94%
viability, T/C [1]: 86.2%
viability, T/C [2]: 95.3%
viability, T/C [3]: 76.5%
viability, T/C (second compound 0.316 µM, first compound 0.000316 µM): 118%
viability, T/C (second compound 0.316 µM, first compound 0.001 µM): 114%
viability, T/C (second compound 0.316 µM, first compound 0.00316 µM): 104%
viability, T/C [7]: 104%
viability, T/C [8]: 96.4%
viability, T/C [9]: 89.4%
viability, T/C (second compound 1 µM, first compound 0.000316 µM): 117%
viability, T/C (second compound 1 µM, first compound 0.001 µM): 107%
viability, T/C (second compound 1 µM, first compound 0.00316 µM): 106%
viability, T/C [13]: 90.7%
viability, T/C [14]: 101%
viability, T/C [15]: 87.2%
viability, T/C (second compound 3.16 µM, first compound 0.000316 µM): 71.7%
viability, T/C (second compound 3.16 µM, first compound 0.001 µM): 67%
viability, T/C (second compound 3.16 µM, first compound 0.00316 µM): 66.6%
viability, T/C [19]: 71.9%
viability, T/C [20]: 68.4%
viability, T/C [21]: 53.5%
viability, T/C (second compound 10 µM, first compound 0.000316 µM): 29.3%
viability, T/C (second compound 10 µM, first compound 0.001 µM): 24.5%
viability, T/C (second compound 10 µM, first compound 0.00316 µM): 22.8%
viability, T/C [25]: 23%
viability, T/C [26]: 20.9%
viability, T/C [27]: 19.2%

CC1(C)CCC(CN2CCN(c3ccc(C(=O)NS(=O)(=O)c4ccc(NCC5CCOCC5)c([N+](=O)[O-])c4)c(Oc4cnc5[nH]ccc5c4)c3)CC2)=C(c2ccc(Cl)cc2)C1 + C=CC(=O)N1CCN(c2nc(OCC3CCCN3C)nc3c2CCN(c2cccc4cccc(C)c24)C3)CC1CC#N
IC50 (second compound 0.0316 µM): 2.04 µM
IC50 (second compound 0.1 µM): 2.1 µM
IC50 (second compound 0.316 µM): 1.81 µM
IC50 (second compound 1 µM): 0.43 µM
IC50 (second compound 3.16 µM): < 0.0316 µM
viability, T/C (second compound 0.0316 µM, first compound 0.0316 µM): 99.8%
viability, T/C (second compound 0.0316 µM, first compound 0.1 µM): 101%
viability, T/C (second compound 0.0316 µM, first compound 0.316 µM): 96.1%
viability, T/C (second compound 0.0316 µM, first compound 1 µM): 92.5%
viability, T/C (second compound 0.0316 µM, first compound 3.16 µM): 23.8%
viability, T/C (second compound 0.0316 µM, first compound 10 µM): 4.26%
viability, T/C [2]: 98.1%
viability, T/C [3]: 103%
viability, T/C [4]: 100%
viability, T/C [5]: 96.1%
viability, T/C [6]: 24.7%
viability, T/C [31]: 4.98%
viability, T/C [8]: 88.2%
viability, T/C [9]: 98.4%
viability, T/C [10]: 83.2%
viability, T/C [11]: 90.2%
viability, T/C [12]: 12.6%
viability, T/C [32]: 4.29%
viability, T/C [14]: 58%
viability, T/C [15]: 59.7%
viability, T/C [16]: 52%
viability, T/C [17]: 35.3%
viability, T/C [18]: 2.72%
viability, T/C [33]: 2.98%
viability, T/C [20]: 0.13%
viability, T/C [21]: 0.2%
viability, T/C [22]: 0.14%
viability, T/C [23]: 0.12%
viability, T/C [24]: 0.37%
viability, T/C [34]: 0.26%

CC1OCC2(CCN(c3cnc(Sc4ccnc(N)c4Cl)c(N)n3)CC2)C1N (stereo not given) + CNCc1ccccc1-c1csc(C(C)Nc2nc(C)nc3cc(OC)c(OC)cc23)c1
IC50 (second compound 0.1 µM): 0.296 µM
IC50 (second compound 0.316 µM): 0.203 µM
IC50 (second compound 1 µM): 0.0435 µM
IC50 (second compound 3.16 µM): < 0.0316 µM
IC50 (second compound 10 µM): < 0.0316 µM
viability, T/C [2]: 77%
viability, T/C [3]: 61.6%
viability, T/C [4]: 50%
viability, T/C [5]: 37.5%
viability, T/C [6]: 34.6%
viability, T/C [31]: 26.7%
viability, T/C [8]: 77.4%
viability, T/C [9]: 56.2%
viability, T/C [10]: 44.7%
viability, T/C [11]: 37.4%
viability, T/C [12]: 31.8%
viability, T/C [32]: 24.8%
viability, T/C [14]: 52.5%
viability, T/C [15]: 43.2%
viability, T/C [16]: 37.8%
viability, T/C [17]: 29.3%
viability, T/C [18]: 26%
viability, T/C [33]: 22.2%
viability, T/C [20]: 0.1%
viability, T/C [21]: 0.09%
viability, T/C [22]: 0.07%
viability, T/C [23]: 0.06%
viability, T/C [24]: 0.05%
viability, T/C [34]: 0.33%
viability, T/C [26]: 0.09%
viability, T/C [27]: 0.19%
viability, T/C [28]: 0.08%
viability, T/C [29]: 0.09%
viability, T/C [30]: 0.09%
viability, T/C (second compound 10 µM, first compound 10 µM): 0.15%
